Test results published in ChEMBL document CHEMBL1133144, “Synthesis and structure-activity relationships of a new class of 1-oxacephem-based human chymase inhibitors” (Bioorg Med Chem Lett, 2000).

What was measured:
Chymase = target: T1, Chymase (Homo sapiens, UniProt P23946); test: Inhibitory activity against human serine protease chymase
T1 sequence (P23946 whole entry): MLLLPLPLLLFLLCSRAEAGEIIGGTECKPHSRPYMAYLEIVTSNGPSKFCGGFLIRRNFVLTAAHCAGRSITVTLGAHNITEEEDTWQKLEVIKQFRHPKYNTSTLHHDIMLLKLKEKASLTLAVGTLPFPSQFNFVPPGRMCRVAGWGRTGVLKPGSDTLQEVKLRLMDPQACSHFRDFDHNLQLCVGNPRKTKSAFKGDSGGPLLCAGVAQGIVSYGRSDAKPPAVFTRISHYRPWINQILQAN

Cathepsin G = target: T2, Cathepsin G (Homo sapiens, UniProt P08311); test: The compound was evaluated for the inhibitory activity against cathepsin G
T2 sequence (P08311 whole entry): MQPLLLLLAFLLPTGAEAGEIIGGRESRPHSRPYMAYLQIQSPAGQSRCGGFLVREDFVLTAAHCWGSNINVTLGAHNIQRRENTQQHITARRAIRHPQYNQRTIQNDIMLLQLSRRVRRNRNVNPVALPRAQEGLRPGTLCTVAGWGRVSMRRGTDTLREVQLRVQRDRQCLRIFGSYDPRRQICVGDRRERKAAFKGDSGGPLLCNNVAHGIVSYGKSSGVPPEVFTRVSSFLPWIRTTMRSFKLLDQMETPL

Neutrophil elastase = target: T3, Neutrophil elastase (Homo sapiens, UniProt P08246); test: The compound was evaluated for the inhibitory activity against human neutrophil elastase
T3 sequence (P08246 whole entry): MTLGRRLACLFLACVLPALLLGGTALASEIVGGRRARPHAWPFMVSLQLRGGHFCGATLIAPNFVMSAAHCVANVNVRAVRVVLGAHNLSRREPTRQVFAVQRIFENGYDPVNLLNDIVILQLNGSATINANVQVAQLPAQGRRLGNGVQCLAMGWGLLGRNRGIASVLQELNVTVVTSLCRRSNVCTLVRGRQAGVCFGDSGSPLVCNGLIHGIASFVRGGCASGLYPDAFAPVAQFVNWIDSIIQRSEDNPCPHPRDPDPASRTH

Plasminogen = Plasminogen (Homo sapiens, UniProt P00747); test: The compound was evaluated for the inhibitory activity against plasmin
Prothrombin = Prothrombin (Homo sapiens, UniProt P00734); test: The compound was evaluated for the inhibitory activity against thrombin
Serine protease 1 = target: T4, Serine protease 1 (Bos taurus, UniProt P00760); test: The compound was evaluated for the inhibitory activity against trypsin
T4 sequence (P00760 whole entry): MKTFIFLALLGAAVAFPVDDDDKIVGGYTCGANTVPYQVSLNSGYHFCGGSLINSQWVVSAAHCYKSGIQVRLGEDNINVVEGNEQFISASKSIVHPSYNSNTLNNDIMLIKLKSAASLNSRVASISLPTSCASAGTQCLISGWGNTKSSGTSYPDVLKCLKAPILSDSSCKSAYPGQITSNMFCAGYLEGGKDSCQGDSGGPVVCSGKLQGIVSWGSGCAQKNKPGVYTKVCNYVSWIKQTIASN

Sequence of Plasminogen (P00747 97-580 limits assumed): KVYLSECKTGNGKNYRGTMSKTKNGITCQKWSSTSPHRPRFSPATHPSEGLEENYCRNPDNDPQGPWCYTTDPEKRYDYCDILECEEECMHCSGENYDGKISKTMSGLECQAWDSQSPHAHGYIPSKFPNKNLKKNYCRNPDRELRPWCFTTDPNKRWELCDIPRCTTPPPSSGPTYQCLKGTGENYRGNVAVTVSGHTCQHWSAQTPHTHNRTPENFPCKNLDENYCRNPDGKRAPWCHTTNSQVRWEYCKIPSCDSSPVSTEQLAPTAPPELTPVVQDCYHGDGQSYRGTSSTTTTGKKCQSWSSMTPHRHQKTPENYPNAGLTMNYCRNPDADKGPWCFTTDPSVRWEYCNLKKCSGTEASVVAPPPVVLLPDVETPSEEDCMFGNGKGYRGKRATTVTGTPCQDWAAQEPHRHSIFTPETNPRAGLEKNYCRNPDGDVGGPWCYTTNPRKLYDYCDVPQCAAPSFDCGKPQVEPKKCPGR
Sequence of Plasminogen (P00747 581-810 limits assumed): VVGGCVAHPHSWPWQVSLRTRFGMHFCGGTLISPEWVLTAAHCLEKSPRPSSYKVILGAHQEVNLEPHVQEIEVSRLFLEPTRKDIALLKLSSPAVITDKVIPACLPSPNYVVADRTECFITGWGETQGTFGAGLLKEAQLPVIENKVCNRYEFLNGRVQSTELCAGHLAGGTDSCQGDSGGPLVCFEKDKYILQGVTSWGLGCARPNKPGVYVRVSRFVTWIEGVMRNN

SMILES	IC50 (Chymase)	also measured
CO[C@@]1(NC(=O)Cc2ccc(-c3ccccc3)cc2)C(=O)N2C(C(=O)OC(c3ccccc3)c3ccccc3)=C(CSc3nnnn3C)CO[C@@H]21	> 10000 nM	–
CO[C@@]1(NC(=O)Cc2ccc(Br)cc2)C(=O)N2C(C(=O)OC(c3ccccc3)c3ccccc3)=C(CSc3nnnn3C)CO[C@@H]21	6800 nM	–
CO[C@@]1(NC(=O)Cc2ccc(O)cc2)C(=O)N2C(C(=O)N3CCCC3)=C(CSc3nnnn3C)CO[C@@H]21	> 10000 nM	–
COc1ccccc1C(=O)N[C@]1(OC)C(=O)N2C(C(=O)OCc3cccc(C)c3)=C(CSc3nncn3CC(=O)O)CO[C@@H]21	–	IC50 (Cathepsin G): 230 nM; IC50 (Neutrophil elastase): > 10000 nM; IC50 (Plasminogen): > 10000 nM; IC50 (Prothrombin): 430 nM; IC50 (Serine protease 1): 440 nM
COc1ccc(C(=O)N[C@]2(OC)C(=O)N3C(C(=O)OC(c4ccccc4)c4ccccc4)=C(CSc4nnnn4C)CO[C@@H]32)cc1	> 10000 nM	–
CO[C@@]1(NC(=O)Cc2ccc(O)cc2)C(=O)N2C(C(=O)OCc3cccc(C)c3)=C(C)CO[C@@H]21	> 10000 nM	–

Further lines, with some results ahead:

IC50 (Chymase)	SMILES	also measured
150 nM	CO[C@@]1(NC(=O)Cc2ccc(O)cc2)C(=O)N2C(C(=O)OCc3cccc(C)c3)=C(CCl)CO[C@@H]21	–
1700 nM	CO[C@@]1(NC(=O)c2ccccc2Cl)C(=O)N2C(C(=O)OC(c3ccccc3)c3ccccc3)=C(CSc3nnnn3C)CO[C@@H]21	–
4000 nM	CO[C@@]1(NC(=O)Cc2ccc(O)cc2)C(=O)N2C(C(=O)OCc3cccc(C)c3)=C(CSc3nncn3C)CO[C@@H]21	–
